From ChEMBL document CHEMBL1201862, “PubChem BioAssay data set” (2004)
Calls of active or inactive are those of the source.

Legend:
Cytochrome P450 1A2 = molecular target: T1, Cytochrome P450 1A2 (Homo sapiens, UniProt P05177);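 note: PubChem cytochrome P450 panel assay, CYP1A2 panel member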
T1 sequence (P05177 whole entry): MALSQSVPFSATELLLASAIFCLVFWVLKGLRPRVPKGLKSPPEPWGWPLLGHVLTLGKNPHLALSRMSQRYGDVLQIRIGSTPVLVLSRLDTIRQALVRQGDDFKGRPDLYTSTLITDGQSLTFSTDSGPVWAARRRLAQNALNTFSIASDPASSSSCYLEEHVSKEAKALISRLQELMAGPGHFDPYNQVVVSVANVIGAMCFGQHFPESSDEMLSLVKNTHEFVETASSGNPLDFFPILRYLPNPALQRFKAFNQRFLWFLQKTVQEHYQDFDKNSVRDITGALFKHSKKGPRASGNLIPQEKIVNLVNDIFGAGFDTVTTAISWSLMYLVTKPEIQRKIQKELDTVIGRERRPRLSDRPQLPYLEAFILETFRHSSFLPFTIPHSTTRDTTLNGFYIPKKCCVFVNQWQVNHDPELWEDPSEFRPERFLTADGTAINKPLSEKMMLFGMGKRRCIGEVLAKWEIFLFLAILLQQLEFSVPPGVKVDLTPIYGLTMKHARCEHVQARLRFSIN

[1] = molecular target: Mitogen-activated protein kinase 10 (Homo sapiens, UniProt P53779); experiment: Dose response biochemical screening assay for inhibitors of c-Jun N-Terminal Kinase 3 (JNK3). [Related pubchem assays: 746 ]
Cytochrome P450 2D6 = Cytochrome P450 2D6 (Homo sapiens, UniProt P10635);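 note: CYP2D6 member of a cytochrome P450 panel assay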
fMet-Leu-Phe receptor = molecular target: T2, fMet-Leu-Phe receptor (Homo sapiens, UniProt P21462); experiment: FPR ligands, dose response (AID 519); format: functional
T2 sequence (P21462 whole entry): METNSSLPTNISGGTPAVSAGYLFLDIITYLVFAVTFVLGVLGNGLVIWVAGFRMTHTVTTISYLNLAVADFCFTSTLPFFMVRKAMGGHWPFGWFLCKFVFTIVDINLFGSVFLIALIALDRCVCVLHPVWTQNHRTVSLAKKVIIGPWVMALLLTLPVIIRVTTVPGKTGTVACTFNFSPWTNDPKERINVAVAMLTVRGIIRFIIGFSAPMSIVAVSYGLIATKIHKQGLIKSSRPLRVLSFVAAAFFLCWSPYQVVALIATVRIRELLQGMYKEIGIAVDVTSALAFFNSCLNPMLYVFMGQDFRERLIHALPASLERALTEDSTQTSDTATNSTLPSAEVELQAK

cells = conditions: HEK293
[2] = microbe, parasite or virus in culture; format: functional; conditions: Mycobacterium tuberculosis
[3] = molecular target: Disintegrin and metalloproteinase domain-containing protein 17 (Homo sapiens, UniProt P78536); experiment: ADAM17 protease inhibitors, dose response, counter-screen for ADAM10 exosite inhibitor project, biochemical, quenched FRET substrate (AID 743253)
[4] = Luminescence Cell-Based Dose Retest to Confirm Inhibitors of Cancer Stem Cells. [Related pubchem assays (depositor defined):AID2717, AID2721]; format: functional; conditions: Homo sapiens
Streptococcus = experiment: Group A Streptococcus viability loss, dose response, counter-screen for streptokinase expression inhibitor project, luminescence, BacTiterGlo (AID 1915); format: functional, organism-based;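 note: potency for reduction of bacterial viability or growth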
[5] = tested on: Streptococcus sp. 'group A'; experiment: growth inhibition of control SK(-) GAS strain, dose response, counter-screen for streptokinase expression inhibitor project, luminescence, kanamycin, BacTiterGlo, confirmation (AID 1900); format: functional, organism-based
Streptokinase A = molecular target: T3, Streptokinase A (Streptococcus pyogenes serotype M1, UniProt P10520); experiment: S. pyogenes streptokinase expression inhibitors, potency, dose response, plasminogen activation absorbance, OD405 (AID 1914); format: functional, Streptococcus pyogenes M1 GAS;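 note: secreted streptokinase activity via plasminogen activation per viability signal from cell pellet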
T3 sequence (P10520 whole entry): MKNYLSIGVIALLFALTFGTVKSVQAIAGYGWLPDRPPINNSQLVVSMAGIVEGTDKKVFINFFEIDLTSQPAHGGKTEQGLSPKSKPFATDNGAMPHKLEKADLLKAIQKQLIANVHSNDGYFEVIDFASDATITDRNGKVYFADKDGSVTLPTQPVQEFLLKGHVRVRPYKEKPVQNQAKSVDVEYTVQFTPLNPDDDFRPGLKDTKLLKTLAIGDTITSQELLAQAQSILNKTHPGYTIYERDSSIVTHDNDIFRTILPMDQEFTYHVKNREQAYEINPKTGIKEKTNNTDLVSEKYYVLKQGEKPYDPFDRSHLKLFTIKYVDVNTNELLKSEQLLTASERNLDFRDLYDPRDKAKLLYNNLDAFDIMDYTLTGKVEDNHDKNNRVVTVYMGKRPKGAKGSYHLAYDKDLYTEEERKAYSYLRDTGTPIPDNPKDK

[6] = A375 melanoma cell cytotoxicity, dose response, counter-screen for MITF inhibitor project, CellTiter-Glo luminescence, dry powder, set 2 (AID 624489); format: functional, cell-based; conditions: A-375;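 note: actives are compounds lowering A375 viability meaning general cytotoxicity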
[7] = A375 melanoma cell viability loss, dose response, counter-screen for MITF inhibitor project, CellTiter-Glo luminescence, dry powder, set 4 (AID 624364); format: functional, cell-based; conditions: A-375;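 note: A375 melanoma cells are MITF independent so this is a counter screen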
[8] = reduction of Shn3 3'UTR firefly luciferase signal, dose response, Schnurri-3 inhibitor project, cell-based, Clone20 osteoblasts, cherry-pick, set 2 (AID 720490); format: functional;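 note: actives lower the luminescence signal as inhibitors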
[9] = Shn3 3'UTR reporter inhibitors, dose response, cell-based, Clone20 osteoblasts, firefly luciferase, cherry-picked (AID 624132); format: functional;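 note: firefly luciferase luminescence from reporter carrying the Shn3 3'UTR in osteoblasts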
[10] = control 3'UTR Renilla luciferase suppression, dose response, counter-screen for Shn3 inhibitor project, cell-based, Clone20-Shn3RL, cherry-picked (AID 624133); format: functional
Protein skinhead-1 = molecular target: T4, Protein skinhead-1 (Caenorhabditis elegans, UniProt P34707); format: functional
T4 sequence (P34707 whole entry): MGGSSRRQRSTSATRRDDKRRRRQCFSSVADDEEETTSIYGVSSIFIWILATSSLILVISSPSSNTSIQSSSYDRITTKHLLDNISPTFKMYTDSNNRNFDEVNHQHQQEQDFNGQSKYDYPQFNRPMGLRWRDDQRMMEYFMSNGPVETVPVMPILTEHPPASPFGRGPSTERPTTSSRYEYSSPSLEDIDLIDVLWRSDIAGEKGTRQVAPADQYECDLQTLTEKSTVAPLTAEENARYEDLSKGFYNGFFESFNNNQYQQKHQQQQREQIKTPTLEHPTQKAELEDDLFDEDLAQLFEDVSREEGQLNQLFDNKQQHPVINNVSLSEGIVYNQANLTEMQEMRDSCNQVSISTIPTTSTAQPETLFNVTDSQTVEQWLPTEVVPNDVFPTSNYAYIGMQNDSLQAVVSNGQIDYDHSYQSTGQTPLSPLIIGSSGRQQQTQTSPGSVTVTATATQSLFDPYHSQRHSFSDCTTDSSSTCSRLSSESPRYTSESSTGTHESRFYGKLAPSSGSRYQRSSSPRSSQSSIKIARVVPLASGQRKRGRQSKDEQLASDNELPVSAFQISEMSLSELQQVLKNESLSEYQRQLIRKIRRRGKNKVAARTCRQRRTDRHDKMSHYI

[11] = NIH-3T3 fibroblast cytotoxicity, dose response, cytotoxicity control, cell-based, fluorescence, Alamar Blue, secondary assay (AID 2327); format: functional;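 note: NIH-3T3 mouse fibroblasts cultured with fluconazole at 8 µg/mL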
[12] = C. albicans growth with fluconazole, confirmation, fluorescence, retest (AID 2467); format: functional, cell-based

Sequence of Disintegrin and metalloproteinase domain-containing protein 17 (P78536 whole entry, the tested form may be a part): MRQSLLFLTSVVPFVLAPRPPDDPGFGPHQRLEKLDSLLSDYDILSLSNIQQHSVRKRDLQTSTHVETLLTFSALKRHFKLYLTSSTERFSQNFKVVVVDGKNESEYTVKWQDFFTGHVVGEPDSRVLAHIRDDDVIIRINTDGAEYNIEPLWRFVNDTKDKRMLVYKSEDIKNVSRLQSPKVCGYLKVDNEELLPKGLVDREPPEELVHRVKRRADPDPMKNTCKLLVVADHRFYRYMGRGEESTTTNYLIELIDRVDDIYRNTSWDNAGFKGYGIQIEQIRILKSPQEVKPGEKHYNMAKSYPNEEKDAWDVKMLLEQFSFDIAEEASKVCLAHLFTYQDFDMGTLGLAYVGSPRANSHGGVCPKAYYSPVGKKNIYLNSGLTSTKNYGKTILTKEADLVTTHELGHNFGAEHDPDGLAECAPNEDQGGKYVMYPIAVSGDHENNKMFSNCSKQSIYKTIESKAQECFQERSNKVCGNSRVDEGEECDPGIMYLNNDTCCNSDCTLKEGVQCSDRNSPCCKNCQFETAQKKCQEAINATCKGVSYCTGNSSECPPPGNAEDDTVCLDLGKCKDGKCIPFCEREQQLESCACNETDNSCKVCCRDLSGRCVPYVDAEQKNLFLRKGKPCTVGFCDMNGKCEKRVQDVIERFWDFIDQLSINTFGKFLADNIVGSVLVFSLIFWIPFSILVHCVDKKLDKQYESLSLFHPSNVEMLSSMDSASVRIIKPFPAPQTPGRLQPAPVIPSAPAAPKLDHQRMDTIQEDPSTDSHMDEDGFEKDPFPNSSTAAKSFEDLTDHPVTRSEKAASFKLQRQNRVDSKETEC
Sequence of Cytochrome P450 2D6 (P10635 whole entry): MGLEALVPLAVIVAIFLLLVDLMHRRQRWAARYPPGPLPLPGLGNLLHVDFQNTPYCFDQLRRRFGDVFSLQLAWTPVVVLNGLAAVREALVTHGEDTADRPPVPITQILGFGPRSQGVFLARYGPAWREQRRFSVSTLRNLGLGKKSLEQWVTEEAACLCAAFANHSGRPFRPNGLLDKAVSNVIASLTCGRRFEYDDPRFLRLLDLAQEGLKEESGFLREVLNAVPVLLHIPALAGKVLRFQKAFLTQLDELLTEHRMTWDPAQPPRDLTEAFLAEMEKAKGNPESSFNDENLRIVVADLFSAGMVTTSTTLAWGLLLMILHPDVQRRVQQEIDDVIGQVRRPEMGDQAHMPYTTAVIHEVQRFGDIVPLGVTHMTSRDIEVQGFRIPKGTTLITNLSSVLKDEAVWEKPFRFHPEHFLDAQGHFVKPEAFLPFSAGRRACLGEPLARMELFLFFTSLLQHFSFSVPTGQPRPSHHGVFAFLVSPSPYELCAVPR
Sequence of Mitogen-activated protein kinase 10 (P53779 whole entry): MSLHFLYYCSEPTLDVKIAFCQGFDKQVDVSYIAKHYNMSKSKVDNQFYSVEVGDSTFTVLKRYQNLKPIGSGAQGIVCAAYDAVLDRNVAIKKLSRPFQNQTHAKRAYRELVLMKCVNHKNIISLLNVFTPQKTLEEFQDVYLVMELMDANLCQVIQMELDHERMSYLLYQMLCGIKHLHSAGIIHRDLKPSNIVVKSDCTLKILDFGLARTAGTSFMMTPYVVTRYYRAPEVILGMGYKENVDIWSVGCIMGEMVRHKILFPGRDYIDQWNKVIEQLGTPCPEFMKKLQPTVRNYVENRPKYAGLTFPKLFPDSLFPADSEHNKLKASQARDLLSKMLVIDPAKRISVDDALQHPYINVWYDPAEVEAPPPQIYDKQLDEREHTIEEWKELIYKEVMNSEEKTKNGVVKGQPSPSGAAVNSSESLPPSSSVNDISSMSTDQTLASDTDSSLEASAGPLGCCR

## Cc1ccc(C(=O)C2=C(O)C(=O)N(CCCn3ccnc3)C2c2ccc(OC(C)C)cc2)o1 (stereo unspecified)
Cytochrome P450 1A2
  AC50: 39.8 µM (inconclusive)
[1]
  IC50: 37.4 µM (not active)
Cytochrome P450 2D6
  AC50: 12.6 µM (inconclusive)
fMet-Leu-Phe receptor
  Ki: > 66.7 µM (inactive)

## CCCOc1c(Br)cc(C2C3=C(CCCC3=O)N(C)C3=C2C(=O)CCC3)cc1OC
cells
  AC50: > 52 µM (inactive)

## O=C(Nc1ccc(OCC(F)(F)C(F)F)c(C(F)(F)F)c1)c1ccc(Cl)cc1
[2]
  CC50: 13.4 µM (active)
[3]
  IC50: > 69.5 µM (inactive)
[4]
  AC50: 3.52 µM (active)
Streptococcus
  EC50: 7.49 µM (active)
[5]
  EC50: 5.77 µM (active)
Streptokinase A
  EC50: 1.77 µM (active)

## NC1=C(c2ccc(OC(F)(F)F)cc2)C(=O)c2ccccc2C1=O
[6]
  AC50: > 70 µM (inactive)
[7]
  AC50: > 70 µM (inactive)

## COc1ccccc1NC(=O)Cn1cc(C(=O)C2CC2)c2ccccc21
[8]
  AC50: 6.08 µM (active)
[9]
  AC50: 4.76 µM (active)
[10]
  AC50: 29 µM (active)

## CCc1cccc(C)c1N=C(S)NCc1ccc2c(c1)cc(C)n2C
cells
  AC50: > 52 µM (inactive)
Protein skinhead-1
  IC50: > 100 µM (inactive)
[11]
  EC50: 51.5 µM (active)
[12]
  EC50: > 38 µM (not active)

## Cc1nn2c(O)c3c(nc2c1-c1ccccc1)CCC3
fMet-Leu-Phe receptor
  Ki: 20.4 µM (inactive)
